Conditions: Liquid; for mass density: Vibrating tube method; for speed of sound: Light diffraction method

CCCCCCCCC(=O)OCC [ethyl nonanoate]
Conditions	mass density [kg/m3]	speed of sound [m/s]
293.15 K, 100 kPa	865.02	–
295.24 K, 10000 kPa	–	1348.5
295.29 K, 7000 kPa	–	1342.4
295.35 K, 5000 kPa	–	1336.6
295.41 K, 3000 kPa	–	1327.1
295.53 K, 1000 kPa	–	1318.3
295.67 K, 100 kPa	–	1303.3
298.15 K, 100 kPa	860.89	–
303.15 K, 100 kPa	856.75	–
303.18 K, 10000 kPa	–	1318
303.22 K, 3000 kPa	–	1296.2
303.26 K, 1000 kPa	–	1278.4
303.3 K, 7000 kPa	–	1307
303.41 K, 5000 kPa	–	1298
303.48 K, 100 kPa	–	1273.9
313.08 K, 10000 kPa	–	1283.3
313.14 K, 1000 kPa	–	1242.7
313.15 K, 100 kPa	848.43	–
313.45 K, 7000 kPa	–	1266
313.56 K, 3000 kPa	–	1252.4
313.77 K, 100 kPa	–	1224.9
314.03 K, 5000 kPa	–	1262.6
322.95 K, 7000 kPa	–	1231.4
323.15 K, 100 kPa	840.09	–
323.39 K, 10000 kPa	–	1246.8
323.64 K, 5000 kPa	–	1215.5
323.68 K, 100 kPa	–	1183.3
324.78 K, 3000 kPa	–	1204.3
324.85 K, 1000 kPa	–	1195.5
332.89 K, 10000 kPa	–	1208.8
332.93 K, 3000 kPa	–	1175.1
333.15 K, 100 kPa	831.73	–
333.21 K, 1000 kPa	–	1163.1
334.21 K, 5000 kPa	–	1185
334.21 K, 7000 kPa	–	1191.7
334.94 K, 100 kPa	–	1142.9
342.88 K, 3000 kPa	–	1137.2
343.1 K, 10000 kPa	–	1170.1
343.12 K, 5000 kPa	–	1153.6
343.15 K, 100 kPa	823.33	–
343.24 K, 1000 kPa	–	1123.8
343.31 K, 7000 kPa	–	1157.3
343.51 K, 100 kPa	–	1107.8
351.94 K, 3000 kPa	–	1098.9
352.22 K, 1000 kPa	–	1085.5
352.39 K, 10000 kPa	–	1135
353.15 K, 100 kPa	814.88	–
353.27 K, 5000 kPa	–	1106.1
353.32 K, 7000 kPa	–	1114.4
354.18 K, 100 kPa	–	1065.4
361.97 K, 5000 kPa	–	1078.7
362.59 K, 7000 kPa	–	1085.6
362.97 K, 3000 kPa	–	1063.9
363 K, 10000 kPa	–	1106.9
363.3 K, 1000 kPa	–	1046
364.18 K, 100 kPa	–	1028.8
371.77 K, 5000 kPa	–	1046.8
371.91 K, 1000 kPa	–	1012.3
371.99 K, 100 kPa	–	1003
372.73 K, 3000 kPa	–	1024.3
373.24 K, 10000 kPa	–	1068.4
373.26 K, 7000 kPa	–	1045.8
381.51 K, 5000 kPa	–	1011.2
381.89 K, 100 kPa	–	965.2
381.96 K, 3000 kPa	–	995.2
383.17 K, 10000 kPa	–	1037.3
383.69 K, 7000 kPa	–	1011.5
384.3 K, 1000 kPa	–	971.3
391.7 K, 5000 kPa	–	974.2
391.74 K, 7000 kPa	–	985.8
391.74 K, 10000 kPa	–	1009.8
391.75 K, 1000 kPa	–	939.5
391.81 K, 3000 kPa	–	961.1
391.89 K, 100 kPa	–	932.1
403.31 K, 1000 kPa	–	902.3
403.36 K, 7000 kPa	–	943.9
403.46 K, 3000 kPa	–	921.8
403.47 K, 10000 kPa	–	968.6
403.82 K, 5000 kPa	–	929.8
405.01 K, 100 kPa	–	884
412.73 K, 3000 kPa	–	893.7
412.73 K, 10000 kPa	–	936.6
412.81 K, 7000 kPa	–	917.8
412.98 K, 1000 kPa	–	870.1
413.05 K, 5000 kPa	–	904.2
413.84 K, 100 kPa	–	861.2
421.5 K, 5000 kPa	–	875.4
421.83 K, 1000 kPa	–	842.1
421.98 K, 10000 kPa	–	916
422 K, 7000 kPa	–	891
422.02 K, 3000 kPa	–	862.5
422.07 K, 100 kPa	–	827.6
431.53 K, 1000 kPa	–	808.9
431.84 K, 5000 kPa	–	850.9
431.86 K, 10000 kPa	–	888.7
431.88 K, 7000 kPa	–	861.7
432.05 K, 3000 kPa	–	827.6
432.93 K, 100 kPa	–	797.1
442.94 K, 1000 kPa	–	779.7
443 K, 7000 kPa	–	835.6
443.02 K, 10000 kPa	–	860.3
443.11 K, 3000 kPa	–	796.4
443.15 K, 5000 kPa	–	814.1
443.7 K, 100 kPa	–	767.3
452.5 K, 1000 kPa	–	750.6
452.64 K, 7000 kPa	–	805
452.65 K, 5000 kPa	–	786.9
452.68 K, 10000 kPa	–	835.1
452.83 K, 100 kPa	–	739.6
452.88 K, 3000 kPa	–	771.1
462.31 K, 3000 kPa	–	743.5
462.34 K, 7000 kPa	–	783.1
462.43 K, 10000 kPa	–	804.8
462.49 K, 5000 kPa	–	763
462.68 K, 1000 kPa	–	720.1
464.19 K, 100 kPa	–	703.5
471.8 K, 3000 kPa	–	718.5
471.86 K, 5000 kPa	–	737.7
471.86 K, 7000 kPa	–	756.6
471.87 K, 1000 kPa	–	693.4
471.88 K, 100 kPa	–	683
471.95 K, 10000 kPa	–	783.4
482.55 K, 1000 kPa	–	665.4
482.56 K, 3000 kPa	–	691.9
482.58 K, 7000 kPa	–	727.2
482.62 K, 5000 kPa	–	709.2
482.62 K, 10000 kPa	–	759.9
482.75 K, 100 kPa	–	652.6
492.48 K, 10000 kPa	–	735.7
492.57 K, 3000 kPa	–	660.7
492.66 K, 7000 kPa	–	704.9
492.67 K, 5000 kPa	–	681.7
493 K, 1000 kPa	–	637.4
502.65 K, 3000 kPa	–	635.1
502.91 K, 7000 kPa	–	681.8
502.95 K, 1000 kPa	–	607.9
503.08 K, 10000 kPa	–	709.9
503.42 K, 5000 kPa	–	655.5
512.78 K, 7000 kPa	–	655
512.8 K, 10000 kPa	–	689.4
512.83 K, 3000 kPa	–	609.6
512.9 K, 5000 kPa	–	633.5
513.2 K, 1000 kPa	–	581.3
522.13 K, 1000 kPa	–	555.5
522.19 K, 7000 kPa	–	631.9
522.31 K, 3000 kPa	–	583.9
522.36 K, 5000 kPa	–	609.3
522.38 K, 10000 kPa	–	662
533.35 K, 1000 kPa	–	519.4
533.43 K, 7000 kPa	–	605.6
533.52 K, 10000 kPa	–	637
533.6 K, 3000 kPa	–	552.1
533.69 K, 5000 kPa	–	581.4
542.72 K, 3000 kPa	–	528.8
542.76 K, 10000 kPa	–	619.6
542.79 K, 7000 kPa	–	583
542.91 K, 5000 kPa	–	553.5
543.62 K, 1000 kPa	–	491
552.52 K, 3000 kPa	–	500.5
552.61 K, 7000 kPa	–	558.1
552.71 K, 1000 kPa	–	458.7
552.72 K, 5000 kPa	–	527.6
552.76 K, 10000 kPa	–	596.5
562.08 K, 1000 kPa	–	428.6
562.32 K, 5000 kPa	–	499.9
562.4 K, 7000 kPa	–	532
562.45 K, 10000 kPa	–	574.7
562.48 K, 3000 kPa	–	468.4
571.78 K, 3000 kPa	–	435.9
571.96 K, 1000 kPa	–	387.2
572.13 K, 7000 kPa	–	504.6
572.32 K, 10000 kPa	–	549
572.37 K, 5000 kPa	–	472
582.01 K, 5000 kPa	–	439.9
582.26 K, 7000 kPa	–	473.6
582.35 K, 10000 kPa	–	525.5
582.39 K, 3000 kPa	–	393.3
591.81 K, 3000 kPa	–	351.2
592.38 K, 5000 kPa	–	398.5
592.79 K, 7000 kPa	–	438.3
593.15 K, 10000 kPa	–	495.3
